This note sets out measurements from PMC6592620 (Biochemistry, 2018).

Structures are written as SMILES.

In this assay the target is phiYFP (yellow fluorescent protein from the jellyfish Phialidium sp.) (Phialidium sp. SL-2003, UniProt Q6RYS7). As to the kind of experiment: fluorescence titration, single site binding model.

Regarding `I` [iodide], the dissociation constant (Kd) turned out to be 50 ± 2 mM.

The Kd is the concentration at which binding is half-saturated. Lower therefore signals higher affinity.
